# “And” between values parts separate entries of the source, which are not always exact repeats. Equal entries are not always repeated.
# Target: NAMPT enzyme (Homo sapiens (Human), UniProt P43490)
# Assay: Enzyme Assay and NMN Detection (NAMPT reaction, fluorescence detection of NMN)
# Type: biochemical
# Details: Table B-1; NAMPT activation, NMN formation
# Summary of the method: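 Reaction in 50 mM HEPES pH 7.5, 5 mM MgCl2, 0.1% Prionex, 0.005% Tween 20, 1 mM TCEP at room temperature, with 16 nM NAMPT, 120 uM ATP, 5 uM nicotinamide, 6.25 uM PRPP, 0.04 U/ml pyrophosphatase for 2 h. Stopped with acetophenone/KOH then formic acid; NMN quantified by fluorescence (ex380/em460) against calibration curve.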
# Chain of NAMPT enzyme (P43490 whole entry, species assumed): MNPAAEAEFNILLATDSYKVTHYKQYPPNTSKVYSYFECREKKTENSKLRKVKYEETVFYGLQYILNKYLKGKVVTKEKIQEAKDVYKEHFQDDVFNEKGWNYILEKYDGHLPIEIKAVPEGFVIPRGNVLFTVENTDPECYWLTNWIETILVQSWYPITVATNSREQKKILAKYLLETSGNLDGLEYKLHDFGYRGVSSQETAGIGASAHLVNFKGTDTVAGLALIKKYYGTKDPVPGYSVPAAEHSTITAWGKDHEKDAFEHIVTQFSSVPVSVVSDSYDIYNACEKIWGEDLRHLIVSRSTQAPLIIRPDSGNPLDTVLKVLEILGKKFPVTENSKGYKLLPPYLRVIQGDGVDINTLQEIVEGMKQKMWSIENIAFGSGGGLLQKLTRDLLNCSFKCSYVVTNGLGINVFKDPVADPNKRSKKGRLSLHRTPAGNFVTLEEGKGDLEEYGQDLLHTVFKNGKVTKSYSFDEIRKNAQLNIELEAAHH
row,EC50 [nM],Structure (SMILES)
1,100 to 2000,O=C(NCc1cn[nH]c1)Nc1ccc(C(=O)Nc2cccc(Cl)c2)cc1 [N-(3-Chloro-phenyl)-4-[3-(1H-pyrazol-4-ylmethyl)-ureido]-benzamide]
2,< 100,COc1cccc(S(=O)(=O)c2ccc(NC(=O)NCc3cn[nH]c3)cc2)c1 [1-[4-(3-Methoxy-benzenesulfonyl)-phenyl]-3-(1H-pyrazol-4-ylmethyl)-urea]
3,< 100,CC(C)N(Cc1ccccc1)S(=O)(=O)c1ccc(NC(=O)NCc2cn[nH]c2)cc1 [N-Benzyl-N-isopropyl-4-[3-(1H-pyrazol-4-ylmethyl)-ureido]-benzenesulfonamide]

# Same assay, conditions: Table B-2; NAMPT activation, NMN formation
row,Structure (SMILES),EC50 [nM]
1,O=C(NCc1ccncc1)Nc1ccc(NS(=O)(=O)Cc2ccccc2Cl)cc1 [1-(2-chlorophenyl)-N-(4-(3-(pyridin-4-ylmethyl)ureido)phenyl)methanesulfonamide],< 100
2,Cc1ccc(NC(=O)NCc2ccncc2)cc1 [1-(Pyridin-4-ylmethyl)-3-(p-tolyl)urea],> 20000

# Further lines, results first:
row,EC50 [nM],Structure (SMILES)
1,100 to 2000,"O=C(NCc1ccncc1)Nc1ccc(C(=O)Nc2ccc3c(c2)OCCO3)cc1 [N-(2,3-dihydrobenzo[b][1,4]dioxin-6-yl)-4-(3-(pyridin-4-ylmethyl)ureido)benzamide]"
2,100 to 2000,COc1ccccc1NS(=O)(=O)c1ccc(NC(=O)NCc2ccncc2)cc1 [N-(2-Methoxy-phenyl)-4-(3-pyridin-4-ylmethyl-ureido)-benzenesulfonamide]
3,< 100,O=C(NCc1ccncc1)Nc1ccc(NS(=O)(=O)c2ccc(Cl)cc2)cc1 [4-Chloro-N-[4-(3-pyridin-4-ylmethyl-ureido)-phenyl]-benzenesulfonamide]
4,5000 to 20000,CCOC(=O)c1cccc(NC(=O)NCc2ccncc2)c1 [Ethyl 3-(3-(pyridin-4-ylmethyl)ureido)benzoate]
5,100 to 2000,CN(C)c1ccc(CNS(=O)(=O)c2ccc(NC(=O)NCc3ccncc3)cc2)cc1 [N-(4-Dimethylamino-benzyl)-4-(3-pyridin-4-ylmethyl-ureido)-benzenesulfonamide]
6,> 20000,CCOC(=O)c1ccc(NC(=O)NCc2ccncc2C)cc1 [Ethyl 4-(3-((3-methylpyridin-4-yl)methyl)ureido)benzoate]
7,100 to 2000,O=C(NCc1ccncc1)Nc1ccc(S(=O)(=O)NCc2cccc(Cl)c2)cc1 [N-(3-Chloro-benzyl)-4-(3-pyridin-4-ylmethyl-ureido)-benzenesulfonamide]
8,2000 to 5000,CCCNC(=O)c1ccc(NC(=O)NCc2ccncc2)cc1 [N-propyl-4-(3-(pyridin-4-ylmethyl)ureido)benzamide]
9,100 to 2000,O=C(NCc1ccncc1)Nc1ccc(S(=O)(=O)NCc2ccc(Cl)cc2)cc1 [N-(4-chlorobenzyl)-4-(3-(pyridin-4-ylmethyl)ureido)benzenesulfonamide]
10,100 to 2000,COc1cccc(NS(=O)(=O)c2ccc(NC(=O)NCc3ccncc3)cc2)c1 [N-(3-Methoxy-phenyl)-4-(3-pyridin-4-ylmethyl-ureido)-benzenesulfonamide]
11,100 to 2000,O=C(NCc1ccncc1)Nc1ccc(S(=O)(=O)N2CCOCC2)cc1 [1-[4-(Morpholine-4-sulfonyl)-phenyl]-3-pyridin-4-ylmethyl-urea]
12,100 to 2000,COc1ccc(S(=O)(=O)Nc2ccc(NC(=O)NCc3ccncc3)cc2)cc1 [4-Methoxy-N-[4-(3-pyridin-4-ylmethyl-ureido)-phenyl]-benzenesulfonamide]
13,100 to 2000,O=C(NCc1ccncc1)Nc1ccc(S(=O)(=O)NCC2CCC2)cc1 [N-Cyclobutylmethyl-4-(3-pyridin-4-ylmethyl-ureido)-benzenesulfonamide]
14,100 to 2000,CN(C)c1ccc(NC(=O)c2ccc(NC(=O)NCc3ccncc3)cc2)cc1 [N-(4-(dimethylamino)phenyl)-4-(3-(pyridin-4-ylmethyl)ureido)benzamide]
15,100 to 2000,CC(NS(=O)(=O)c1ccc(NC(=O)NCc2ccncc2)cc1)C1CCC1 (stereo not drawn) [N-(1-Cyclobutyl-ethyl)-4-(3-pyridin-4-ylmethyl-ureido)-benzenesulfonamide]
16,< 100,CN(Cc1ccccc1F)S(=O)(=O)c1ccc(NC(=O)NCc2ccncc2)cc1 [N-(2-Fluoro-benzyl)-N-methyl-4-(3-pyridin-4-ylmethyl-ureido)-benzenesulfonamide]
17,2000 to 5000,O=C(NCc1ccncc1)Nc1ccc(C(=O)Nc2ccccc2)cc1 [N-phenyl-4-(3-(pyridin-4-ylmethyl)ureido)benzamide]
18,2000 to 5000,CNS(=O)(=O)c1ccc(NC(=O)NCc2ccncc2)cc1 [N-Methyl-4-(3-pyridin-4-ylmethyl-ureido)-benzenesulfonamide]

# Same assay, conditions: Table B-3; NAMPT activation, NMN formation
row,EC50 [nM],Structure (SMILES)
1,> 20000,Cc1ccc(NC(=O)NCc2ccccn2)cc1 [1-(Pyridin-2-ylmethyl)-3-(p-tolyl)urea]
2,> 20000,CCOC(=O)c1ccc(NC(=O)NCc2ccnnc2)cc1 [Ethyl 4-(3-(pyridazin-4-ylmethyl)ureido)benzoate]

# Same assay, conditions: Table B-4; NAMPT activation, NMN formation
row,Structure (SMILES),EC50
1,O=C(NCc1cn[nH]c1)Nc1ccc(S(=O)(=O)c2nccs2)cc1 [1-(1H-Pyrazol-4-ylmethyl)-3-[4-(thiazole-2-sulfonyl)-phenyl]-urea],2000 to 5000 nM and 100 to 2000 nM
2,CC(C)n1cc(S(=O)(=O)c2ccc(NC(=O)NCc3cn[nH]c3)cc2)cn1 [1-[4-(1-Isopropyl-1H-pyrazole-4-sulfonyl)-phenyl]-3-(1H-pyrazol-4-ylmethyl)-urea],< 100 nM
3,O=C(NCc1cn[nH]c1)Nc1ccc(S(=O)(=O)C2CCCCC2)cc1 [1-(4-Cyclohexanesulfonyl-phenyl)-3-(1H-pyrazol-4-ylmethyl)-urea],100 to 2000 nM
4,O=C(NCc1cn[nH]c1)Nc1ccc(S(=O)(=O)c2ccc(OC(F)(F)F)cc2)cc1 [1-(1H-Pyrazol-4-ylmethyl)-3-[4-(4-trifluoromethoxy-benzenesulfonyl)-phenyl]-urea],100 to 2000 nM
5,"O=C(NCc1cn[nH]c1)Nc1ccc(S(=O)(=O)c2ccc(Cl)cc2Cl)cc1 [1-[4-(2,4-Dichloro-benzenesulfonyl)-phenyl]-3-(1H-pyrazol-4-ylmethyl)-urea]",100 to 2000 nM
6,"Cn1nc(-c2ccc(NC(=O)NCc3cn[nH]c3)cc2)c2ccncc21 [1-((1H-Pyrazol-4-yl)methyl)-3-(4-(1-methyl-1H-pyrazolo[3,4-c]pyridin-3-yl)phenyl)urea]",2000 to 5000 nM
7,O=C(NCc1cn[nH]c1)Nc1ccc(-c2ncc(Cc3ccccc3)s2)cc1 [1-((1H-Pyrazol-4-yl)methyl)-3-(4-(5-benzylthiazol-2-yl)phenyl)urea],2000 to 5000 nM

# Next, values leading:
row,EC50,Structure (SMILES)
1,100 to 2000 nM,O=C(NCc1cn[nH]c1)Nc1ccc(S(=O)(=O)c2ccccc2-c2cccc(Cl)c2)cc1 [1-[4-(3′-Chloro-biphenyl-2-sulfonyl)-phenyl]-3-(1H-pyrazol-4-ylmethyl)-urea]
2,100 to 2000 nM,Cc1cccc(-c2ccccc2S(=O)(=O)c2ccc(NC(=O)NCc3cn[nH]c3)cc2)c1 [1-[4-(3′-Methyl-biphenyl-2-sulfonyl)-phenyl]-3-(1H-pyrazol-4-ylmethyl)-urea]
3,< 100 nM,O=C(NCc1cn[nH]c1)Nc1ccc(NS(=O)(=O)Cc2cccc(Cl)c2)cc1 [C-(3-Chloro-phenyl)-N-{4-[3-(1H-pyrazol-4-ylmethyl)-ureido]-phenyl}-methanesulfonamide]
4,2000 to 5000 nM,COc1cccc(-c2ccccc2S(=O)(=O)c2ccc(NC(=O)NCc3cn[nH]c3)cc2)c1 [1-[4-(3′-Methoxy-biphenyl-2-sulfonyl)-phenyl]-3-(1H-pyrazol-4-ylmethyl)-urea]

# Same assay, conditions: Table B-5; NAMPT activation, NMN formation
row,EC50,Structure (SMILES)
1,2000 to 5000 nM,O=C(NCc1cnco1)Nc1ccc(Nc2nc(-c3ccccc3)cs2)cc1 [1-(Oxazol-5-ylmethyl)-3-(4-((4-phenylthiazol-2-yl)amino)phenyl)urea]
2,100 to 2000 nM and 2000 to 5000 nM,"O=C(NCc1cnco1)Nc1ccc(S(=O)(=O)c2ccc(Cl)c(Cl)c2)cc1 [1-[4-(3,4-Dichloro-benzenesulfonyl)-phenyl]-3-oxazol-5-ylmethyl-urea]"
3,100 to 2000 nM,O=C(NCc1cnco1)Nc1ccc(S(=O)(=O)c2cccc(C(F)(F)F)c2)cc1 [1-(Oxazol-5-ylmethyl)-3-(4-((3-(trifluoromethyl)phenyl)sulfonyl)phenyl)urea]
4,< 100 nM,"O=C(NCc1cnco1)Nc1ccc(S(=O)(=O)c2ccccc2-c2ccccc2)cc1 [1-(4-([1,1′-Biphenyl]-2-ylsulfonyl)phenyl)-3-(oxazol-5-ylmethyl)urea]"
5,100 to 2000 nM,O=C(NCc1cnco1)Nc1ccc(S(=O)(=O)c2ccc(C(F)(F)F)cc2)cc1 [1-(Oxazol-5-ylmethyl)-3-(4-((4-(trifluoromethyl)phenyl)sulfonyl)phenyl)urea]

# Same assay, conditions: Table B-6; NAMPT activation, NMN formation
row,EC50 [nM],Structure (SMILES)
1,100 to 2000,"O=C(NCc1ccncc1)Nc1ccc(S(=O)(=O)c2ccc(Cl)cc2Cl)cc1 [1-[4-(2,4-Dichloro-benzenesulfonyl)-phenyl]-3-pyridin-4-ylmethyl-urea]"
2,100 to 2000,O=C(NCc1ccncc1)Nc1ccc(S(=O)(=O)c2ccc(F)cc2)cc1 [1-(4-((4-Fluorophenyl)sulfonyl)phenyl)-3-(pyridin-4-ylmethyl)urea]
3,< 100,O=C(NCc1ccncc1)Nc1ccc(S(=O)(=O)c2cccc(I)c2)cc1 [1-[4-(3-Iodo-benzenesulfonyl)-phenyl]-3-pyridin-4-ylmethyl-urea]
4,100 to 2000,Cc1cccc(-c2ccccc2S(=O)(=O)c2ccc(NC(=O)NCc3ccncc3)cc2)c1 [1-[4-(3′-Methyl-biphenyl-2-sulfonyl)-phenyl]-3-pyridin-4-ylmethyl-urea]
5,5000 to 20000,O=C(NCc1ccncc1)Nc1ccc(Nc2ncc(-c3ccccc3)s2)cc1 [1-(4-((5-Phenylthiazol-2-yl)amino)phenyl)-3-(pyridin-4-ylmethyl)urea]
6,< 100,Cc1ccc(S(=O)(=O)c2ccc(NC(=O)NCc3ccncc3)cc2)cc1 [1-Pyridin-4-ylmethyl-3-[4-(toluene-4-sulfonyl)-phenyl]-urea]
7,5000 to 20000,COc1ccc(-c2ccccc2S(=O)(=O)c2ccc(NC(=O)NCc3ccncc3)cc2)cn1 [1-(4-((2-(6-Methoxypyridin-3-yl)phenyl)sulfonyl)phenyl)-3-(pyridin-4-ylmethyl)urea]

# Source: patent US11452717B2, “Small molecule activators of nicotinamide phosphoribosyltransferase (NAMPT) and uses thereof” (Sanford Burnham Prebys Medical Discovery Institute, priority 2017, dated 2022)
